Reference: ChEMBL document CHEMBL3217756, “Biological and computational evaluation of an oxadiazole derivative (MD77) as a new lead for direct STAT3 inhibitors” (Medchemcomm, 2012)

Assays:
[1] = target: Signal transducer and activator of transcription 3 (Homo sapiens, UniProt P40763); experiment: Inhibition of SH2 domain of STAT3 (unknown origin) using (FITC)-GpYLPQTV as substrate preincubated for 15 mins before substrate addition measured after 90 mins by alphascreen based assay
CCRF-CEM = experiment: Cytotoxicity against human CCRF-CEM cells after 48 hrs by sulforhodamine B assay; format: functional
RPMI-8226 = experiment: Cytotoxicity against human RPMI8226 cells after 48 hrs by sulforhodamine B assay; format: functional; details: RPMI-8226, 48 h
[2] = Cytotoxicity against human EKVX cells after 48 hrs by sulforhodamine B assay; format: functional
NCI-H226 = experiment: Cytotoxicity against human NCI-H226 cells after 48 hrs by sulforhodamine B assay; format: functional; details: NCI-H226, 48 h
NCI-H322M = experiment: Cytotoxicity against human NCI-H322M cells after 48 hrs by sulforhodamine B assay; format: functional
COLO 205 = experiment: Cytotoxicity against human COLO205 cells after 48 hrs by sulforhodamine B assay; format: functional; details: COLO 205, 48 h
HCC 2998 = experiment: Cytotoxicity against human HCC2998 cells after 48 hrs by sulforhodamine B assay; format: functional; details: HCC 2998, 48 h
[3] = Cytotoxicity against human HCT15 cells after 48 hrs by sulforhodamine B assay; format: functional; details: HCT-15, 48 h
SF-539 = experiment: Cytotoxicity against human SF539 cells after 48 hrs by sulforhodamine B assay; format: functional; details: SF-539, 48 h
SNB-75 = experiment: Cytotoxicity against human SNB75 cells after 48 hrs by sulforhodamine B assay; format: functional; details: SNB-75, 48 h
U-251 = experiment: Cytotoxicity against human U251 cells after 48 hrs by sulforhodamine B assay; format: functional; details: U-251, 48 h
M14 = experiment: Cytotoxicity against human M14 cells after 48 hrs by sulforhodamine B assay; format: functional; details: M14, 48 h
[4] = Cytotoxicity against human UACC62 cells after 48 hrs by sulforhodamine B assay; format: functional; details: UACC-62, 48 h
[5] = Cytotoxicity against human OVCAR3 cells after 48 hrs by sulforhodamine B assay; format: functional; details: OVCAR-3, 48 h
[6] = Cytotoxicity against human NCI-ADR-RES cells after 48 hrs by sulforhodamine B assay; format: functional
SK-OV-3 = experiment: Cytotoxicity against human SKOV3 cells after 48 hrs by sulforhodamine B assay; format: functional; details: SK-OV-3, 48 h
RXF 393 = experiment: Cytotoxicity against human RXF393 cells after 48 hrs by sulforhodamine B assay; format: functional; details: RXF 393, 48 h
TK-10 = experiment: Cytotoxicity against human TK10 cells after 48 hrs by sulforhodamine B assay; format: functional; details: TK-10, 48 h
[7] = Cytotoxicity against human UO31 cells after 48 hrs by sulforhodamine B assay; format: functional; details: UO-31, 48 h
T47D = experiment: Cytotoxicity against human T47D cells after 48 hrs by sulforhodamine B assay; format: functional
[8] = read-out: LC50 (the source's name)
[9] = read-out: pLC50 (the source's name) (converted)

Sequence of Signal transducer and activator of transcription 3 (P40763 whole entry, the tested form may be a part): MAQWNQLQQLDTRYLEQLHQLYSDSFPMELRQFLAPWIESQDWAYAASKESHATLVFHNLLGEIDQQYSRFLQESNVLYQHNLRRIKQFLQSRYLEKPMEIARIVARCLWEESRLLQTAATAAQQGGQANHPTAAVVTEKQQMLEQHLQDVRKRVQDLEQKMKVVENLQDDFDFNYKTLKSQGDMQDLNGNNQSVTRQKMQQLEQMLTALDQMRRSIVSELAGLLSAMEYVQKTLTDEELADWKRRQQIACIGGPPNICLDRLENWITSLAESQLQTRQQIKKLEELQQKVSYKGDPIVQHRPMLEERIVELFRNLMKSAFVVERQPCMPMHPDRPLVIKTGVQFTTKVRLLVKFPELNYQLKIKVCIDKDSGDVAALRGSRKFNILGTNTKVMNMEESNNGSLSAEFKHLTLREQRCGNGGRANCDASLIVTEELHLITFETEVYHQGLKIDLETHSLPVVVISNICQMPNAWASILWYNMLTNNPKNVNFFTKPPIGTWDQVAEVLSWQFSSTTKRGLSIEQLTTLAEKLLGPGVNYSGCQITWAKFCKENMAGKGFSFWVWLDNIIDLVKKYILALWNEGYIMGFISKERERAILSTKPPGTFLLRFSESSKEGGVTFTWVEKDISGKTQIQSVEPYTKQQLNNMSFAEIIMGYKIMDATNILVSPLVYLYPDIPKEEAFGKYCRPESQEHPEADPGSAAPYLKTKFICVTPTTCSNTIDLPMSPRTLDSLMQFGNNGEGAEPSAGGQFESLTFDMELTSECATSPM

SMILES: O=C(Nc1nonc1-c1ccc(Cl)cc1)c1ccc(C(F)(F)F)cc1
- IC50 [1]: 17.7 µM
- inhibition [1]: Dose-dependent effect
- GI50 (CCRF-CEM; read-out: GI50): 0.842 µM
- CC50 (CCRF-CEM; [8]): > 100 µM
- TGI (CCRF-CEM; read-out: TGI): 10.7 µM
- GI50 (CCRF-CEM; read-out: pGI50 (converted)): 0.851 µM
- CC50 (CCRF-CEM; [9]): > 100 µM
- TGI (CCRF-CEM; read-out: pTGI (converted)): 10.7 µM
- GI50 (RPMI-8226; read-out: GI50): 1.05 µM
- CC50 (RPMI-8226; [8]): > 100 µM
- TGI (RPMI-8226; read-out: TGI): 5.89 µM
- GI50 (RPMI-8226; read-out: pGI50 (converted)): 1.05 µM
- CC50 (RPMI-8226; [9]): > 100 µM
- TGI (RPMI-8226; read-out: pTGI (converted)): 5.89 µM
- GI50 ([2]; read-out: GI50): 3.4 µM
- CC50 [2, 8]: > 100 µM
- TGI ([2]; read-out: TGI): 33.6 µM
- GI50 ([2]; read-out: pGI50 (converted)): 3.39 µM
- CC50 [2, 9]: > 100 µM
- TGI ([2]; read-out: pTGI (converted)): 33.9 µM
- GI50 (NCI-H226; read-out: GI50): 2.48 µM
- CC50 (NCI-H226; [8]): > 100 µM
- TGI (NCI-H226; read-out: TGI): 7.85 µM
- GI50 (NCI-H226; read-out: pGI50 (converted)): 2.45 µM
- CC50 (NCI-H226; [9]): > 100 µM
- TGI (NCI-H226; read-out: pTGI (converted)): 7.76 µM
- GI50 (NCI-H322M; read-out: GI50): 1.78 µM
- CC50 (NCI-H322M; [8]): > 100 µM
- TGI (NCI-H322M; read-out: TGI): > 100 µM
- GI50 (NCI-H322M; read-out: pGI50 (converted)): 1.78 µM
- CC50 (NCI-H322M; [9]): > 100 µM
- TGI (NCI-H322M; read-out: pTGI): > 100 µM
- GI50 (COLO 205; read-out: GI50): 3.8 µM
- CC50 (COLO 205; [8]): 41.3 µM
- TGI (COLO 205; read-out: TGI): 12 µM
- GI50 (COLO 205; read-out: pGI50 (converted)): 3.8 µM
- CC50 (COLO 205; [9]): 41.7 µM
- TGI (COLO 205; read-out: pTGI (converted)): 12 µM
- GI50 (HCC 2998; read-out: GI50): 3.63 µM
- CC50 (HCC 2998; [8]): > 100 µM
- TGI (HCC 2998; read-out: TGI): > 100 µM
- GI50 (HCC 2998; read-out: pGI50 (converted)): 3.63 µM
- CC50 (HCC 2998; [9]): > 100 µM
- TGI (HCC 2998; read-out: pTGI): > 100 µM
- GI50 ([3]; read-out: GI50): 3.5 µM
- CC50 [3, 8]: > 100 µM
- TGI ([3]; read-out: TGI): > 100 µM
- GI50 ([3]; read-out: pGI50 (converted)): 3.47 µM
- CC50 [3, 9]: > 100 µM
- TGI ([3]; read-out: pTGI): > 100 µM
- GI50 (SF-539; read-out: GI50): 3.68 µM
- CC50 (SF-539; [8]): > 100 µM
- TGI (SF-539; read-out: TGI): 17.1 µM
- GI50 (SF-539; read-out: pGI50 (converted)): 3.72 µM
- CC50 (SF-539; [9]): > 100 µM
- TGI (SF-539; read-out: pTGI (converted)): 17 µM
- GI50 (SNB-75; read-out: GI50): 1.79 µM
- CC50 (SNB-75; [8]): > 100 µM
- TGI (SNB-75; read-out: TGI): 7.54 µM
- GI50 (SNB-75; read-out: pGI50 (converted)): 1.78 µM
- CC50 (SNB-75; [9]): > 100 µM
- TGI (SNB-75; read-out: pTGI (converted)): 7.59 µM
- GI50 (U-251; read-out: GI50): 2.19 µM
- LC50 (U-251; read-out: LC50): > 100 µM
- TGI (U-251; read-out: TGI): > 100 µM
- GI50 (U-251; read-out: pGI50 (converted)): 2.19 µM
- LC50 (U-251; read-out: pLC50 (converted)): > 100 µM
- TGI (U-251; read-out: pTGI): > 100 µM
- GI50 (M14; read-out: GI50): 2.04 µM
- CC50 (M14; [8]): > 100 µM
- TGI (M14; read-out: TGI): > 100 µM
- GI50 (M14; read-out: pGI50 (converted)): 2.04 µM
- CC50 (M14; [9]): > 100 µM
- TGI (M14; read-out: pTGI): > 100 µM
- GI50 ([4]; read-out: GI50): 2.11 µM
- CC50 [4, 8]: > 100 µM
- TGI ([4]; read-out: TGI): 6.83 µM
- GI50 ([4]; read-out: pGI50 (converted)): 2.09 µM
- CC50 [4, 9]: > 100 µM
- TGI ([4]; read-out: pTGI (converted)): 6.76 µM
- GI50 ([5]; read-out: GI50): 2.18 µM
- CC50 [5, 8]: > 100 µM
- TGI ([5]; read-out: TGI): 7.9 µM
- GI50 ([5]; read-out: pGI50 (converted)): 2.19 µM
- CC50 [5, 9]: > 100 µM
- TGI ([5]; read-out: pTGI (converted)): 7.94 µM
- GI50 ([6]; read-out: GI50): 2.66 µM
- CC50 [6, 8]: > 100 µM
- GI50 ([6]; read-out: pGI50 (converted)): 2.63 µM
- CC50 [6, 9]: > 100 µM
- GI50 (SK-OV-3; read-out: GI50): 2.92 µM
- CC50 (SK-OV-3; [8]): > 100 µM
- TGI (SK-OV-3; read-out: TGI): 7.6 µM
- GI50 (SK-OV-3; read-out: pGI50 (converted)): 2.88 µM
- CC50 (SK-OV-3; [9]): > 100 µM
- TGI (SK-OV-3; read-out: pTGI (converted)): 7.59 µM
- GI50 (RXF 393; read-out: GI50): 2.21 µM
- CC50 (RXF 393; [8]): > 100 µM
- TGI (RXF 393; read-out: TGI): 6.07 µM
- GI50 (RXF 393; read-out: pGI50 (converted)): 2.24 µM
- CC50 (RXF 393; [9]): > 100 µM
- TGI (RXF 393; read-out: pTGI (converted)): 6.03 µM
- GI50 (TK-10; read-out: GI50): 6.75 µM
- CC50 (TK-10; [8]): > 100 µM
- TGI (TK-10; read-out: TGI): > 100 µM
- GI50 (TK-10; read-out: pGI50 (converted)): 6.76 µM
- CC50 (TK-10; [9]): > 100 µM
- TGI (TK-10; read-out: pTGI): > 100 µM
- GI50 ([7]; read-out: GI50): 2.37 µM
- CC50 [7, 8]: > 100 µM
- TGI ([7]; read-out: TGI): > 100 µM
- GI50 ([7]; read-out: pGI50 (converted)): 2.34 µM
- CC50 [7, 9]: > 100 µM
- TGI ([7]; read-out: pTGI): > 100 µM
- GI50 (T47D; read-out: GI50): 3.13 µM
- CC50 (T47D; [8]): > 100 µM
- TGI (T47D; read-out: TGI): > 100 µM
- GI50 (T47D; read-out: pGI50 (converted)): 3.16 µM
- CC50 (T47D; [9]): > 100 µM
- TGI (T47D; read-out: pTGI): > 100 µM
